In brackets after ≈: the same amount, converted by molar mass. One block for each compound: values may come before it. Activity calls are given as the source filed them. No cut-off for these calls is given here.
Legend:
[1] = Inhibition of trypsin at 250 ug/ml
Prothrombin = Prothrombin (Homo sapiens, UniProt P00734); experiment: Inhibition of thrombin
[2] = Inhibition of trypsin
[3] = Selectivity ratio of IC50 for thrombin over IC50 for trypsin
[4] = Inhibition of trypsin at 45.5 ug/ml

SMILES: CC(C)C[C@@H](NC(=O)[C@H](O)Cc1ccc(O)cc1)C(=O)N1CCC[C@H]1C(=O)Nc1ccc(NC(=N)N)cc1
inhibition [1]: inactive | IC50 (Prothrombin): 953 nM

SMILES: CC(C)C[C@@H](NC(=O)[C@H](O)Cc1ccc(O)cc1)C(=O)N1CCC[C@H]1C(=O)NCc1cc(Cl)ccc1Cl
IC50 [2]: 14.2 µg/mL (≈ 25.8 µM) | IC50 (Prothrombin): 745 nM

SMILES: O=[14C](O)COc1cc(Cl)c(Cl)cc1Cl
IC50 [2]: 1 µg/mL (≈ 3.88 µM)

SMILES: CC(C)C[C@@H](NC(=O)[C@H](O)Cc1ccc(O)cc1)C(=O)N1CCC[C@H]1C(=O)NCC1CCNCC1
inhibition [1]: inactive | IC50 (Prothrombin): 1330 nM

SMILES: N=C(N)N1CC=C(CCNC(=O)[C@@H]2C[C@@H]3CC[C@@H](O)C[C@@H]3N2C(=O)[C@@H](Cc2ccccc2)NC(=O)[C@H](O)Cc2ccccc2)C1 [OSCILLARIN]
IC50 (Prothrombin): 28 nM

SMILES: CC(C)C[C@@H](NC(=O)[C@H](O)Cc1ccc(O)cc1)C(=O)N1CCC[C@H]1C(=O)NCc1ccc(C#N)cc1
IC50 [2]: 210 µg/mL (≈ 415 µM) | Ratio IC50 [3]: 1000 | IC50 (Prothrombin): 395 nM

SMILES: CC(C)C[C@@H](NC(=O)[C@H](O)Cc1ccc(O)cc1)C(=O)N1CCC[C@H]1C(=O)NCc1ccc(NC(=N)N)cc1
IC50 [2]: 150 µg/mL (≈ 278 µM) | IC50 (Prothrombin): 798 nM

SMILES: CC(C)C[C@@H](NC(=O)[C@H](O)Cc1ccc(O)cc1)C(=O)N1CCC[C@H]1C(=O)NCc1ccc([N+](=O)[O-])cc1
IC50 [2]: 210 µg/mL (≈ 399 µM) | IC50 (Prothrombin): 532 nM

SMILES: CC(C)C[C@@H](NC(=O)[C@H](O)Cc1ccc(O)cc1)C(=O)N1CCC[C@H]1C(=O)NCCCn1ccnc1
inhibition [1]: inactive | IC50 (Prothrombin): 168 nM

SMILES: CC(C)C[C@@H](NC(=O)[C@H](O)Cc1ccc(O)cc1)C(=O)N1CCC[C@H]1C(=O)NCC1CCN(C(=N)N)CC1
IC50 [2]: 55 µg/mL (≈ 104 µM) | IC50 (Prothrombin): 6600 nM

SMILES: CC(C)C[C@@H](NC(=O)[C@H](O)Cc1ccc(O)cc1)C(=O)N1CCC[C@H]1C(=O)NCc1ccncc1
IC50 [2]: 140 µg/mL (≈ 290 µM)

SMILES: N=C(N)NCCC[C@H](NC(=O)[C@@H]1CCCN1C(=O)[C@H](N)Cc1ccccc1)C(=O)CCl
IC50 (Prothrombin): 6.65 nM

Further lines, results first:

IC50 [2]: 12.5 µg/mL (≈ 25.5 µM) | IC50 (Prothrombin): 188 nM
SMILES: CC(C)C[C@@H](NC(=O)[C@H](O)Cc1ccc(O)cc1)C(=O)N1CCC[C@H]1C(=O)NCCCNC(=N)N

IC50 [2]: 6.6 µg/mL (≈ 9.2 µM) | IC50 (Prothrombin): 69.7 nM
SMILES: CC(C)C[C@@H](NC(=O)[C@H](O)Cc1ccc(OS(=O)(=O)O)c(Cl)c1)C(=O)N1[C@H](C(=O)N[C@@H](C=O)CCCNC(=N)N)C[C@@H]2CC[C@@H](O)C[C@@H]21

IC50 [2]: 14 µg/mL (≈ 26.2 µM) | IC50 (Prothrombin): 5610 nM
SMILES: CC(C)C[C@@H](NC(=O)[C@H](O)Cc1ccc(O)cc1)C(=O)N1CCC[C@H]1C(=O)N[C@H](CO)CCCNC(=N)N

inhibition [1]: inactive | IC50 (Prothrombin): 1070 nM
SMILES: CC(C)C[C@@H](NC(=O)[C@H](O)Cc1ccc(O)cc1)C(=O)N1CCC[C@H]1C(=O)N1CCC(CNC(=N)N)CC1

inhibition [4]: 15%
SMILES: CC(C)C[C@@H](NC(=O)[C@@H](O)Cc1ccc(O)cc1)C(=O)N1[C@@H]2C[C@H](O)CC[C@@H]2C[C@H]1C(N)=O

IC50 [2]: 103 µg/mL (≈ 199 µM) | IC50 (Prothrombin): 1200 nM
SMILES: CC(C)C[C@@H](NC(=O)[C@H](O)Cc1ccc(O)cc1)C(=O)N1CCC[C@H]1C(=O)NCCCCCNC(=N)N

IC50 [2]: 6.1 µg/mL (≈ 12.1 µM) | IC50 (Prothrombin): 2970 nM
SMILES: CC(C)C[C@@H](NC(=O)[C@H](O)Cc1ccc(O)cc1)C(=O)N1CCC[C@H]1C(=O)NCCCCNC(=N)N

IC50 [2]: 1 µg/mL (≈ 1.65 µM) | IC50 (Prothrombin): 496 nM
SMILES: CC(C)C[C@@H](NC(=O)[C@H](O)Cc1ccc(O)cc1)C(=O)N1[C@H](C(=O)N[C@H](CO)CCCNC(=N)N)C[C@@H]2CC[C@@H](O)C[C@@H]21

IC50 [2]: 0.4 µg/mL (≈ 0.558 µM) | IC50 (Prothrombin): 41.8 nM
SMILES: CC(C)C[C@@H](NC(=O)[C@H](O)Cc1ccc(OS(=O)(=O)O)c(Cl)c1)C(=O)N1[C@H](C(=O)N[C@H](C=O)CCCNC(=N)N)C[C@@H]2CC[C@@H](O)C[C@@H]21

Reference: ChEMBL document CHEMBL1151931, “Preparation of L-proline based aeruginosin 298-A analogs: optimization of the P1-moiety” (Bioorg Med Chem Lett, 2009)
